Consider one compound from US20070123426A1, “Mixtures” (BASF Aktiengesellschaft, priority 2005, published 2007).

Test in all cases: greenhouse post-emergence herbicidal test
What all share (format): in vivo

For assay [1], the system named is SETVI (Setaria viridis). As to conditions: SETVI; a) 12.5 g/ha, MSO or COC 1.25%, scale 0-100. An excerpt:
(§1) The culture vessels used were plastic flowerpots filled, as substrate, with sandy loam comprising about 3% of humus. The seeds of the test plants were sown separated according to species.
(§2) For the post-emergence treatment, the test plants were initially cultivated to a height of 3-17 cm according to their habit and only then treated with the active compounds, which had been suspended or emulsified in water. To this end, the test plants were either sown directly and cultivated in the same vessels, or they were initially cultivated separately as seedlings and transplanted into the test vessels a few days prior to the treatment. According to the species, the plants were kept at temperatures of from 15° C. to 25° C. or from 20 to 35° C. The trial period extended over 3 weeks. During this time the plants were tended and their response to the individual treatments was evaluated.
(§3) The application in the greenhouse was carried out at a spray liquor application rate of 200 l/ha.

Assay [2] has as its system XANST (Xanthium strumarium). As to conditions: XANST; a) 12.5 g/ha, MSO or COC 1.25%, scale 0-100.
Text: as §1, §2, §3

Assay [3] deals with SORBI (Sorghum bicolor). As to conditions: SORBI; a) 25 g/ha, MSO or COC 1.25%, scale 0-100.
Text: as §1, §2, §3

For assay [4], the system named is SOLNI (Solanum nigrum). As to conditions: SOLNI; a) 3.125 g/ha, MSO or COC 1.25%, scale 0-100.
Text: as §1, §2, §3

Assay [5] concerns AMBEL (Ambrosia elatior). The following applies: AMBEL; a) 3.125 g/ha, MSO or COC 1.25%, scale 0-100.
Text: as §1, §2, §3

Assay [6] relates to ECHCG (Echinochloa crus-galli). The following applies: MSO or COC 1.25%, scale 0-100.
Text: as §1, §2, §3

In assay [7] the test system is PANMI (Panicum milliaceum). As to conditions: PANMI; a) 12.5 g/ha, MSO or COC 1.25%, scale 0-100.
Text: as §1, §2, §3

For assay [8], the system named is HELAN (Helianthus annua). The following applies: HELAN; a) 6.25 g/ha, MSO or COC 1.25%, scale 0-100.
Text: as §1, §2, §3

Assay [9] relates to PANDI (Panicum dichotomiflorum). The following applies: PANDI; a) 25 g/ha, MSO or COC 1.25%, scale 0-100.
Text: as §1, §2, §3

With `Cc1c(C(=O)c2cnn(C)c2O)ccc(S(C)(=O)=O)c1C1=NOCC1` [a)], the observed effect in assay [1] was found to be 60; in [2], 65; in assay [3], 10; in assay [4] it was 30; in [5], 60; in assay [6] (ECHCG; a) 12.5 g/ha), 0. In addition, the observed effect in assay [6] (ECHCG; a) 25 g/ha) was determined as 0; in assay [7] it was 75; in assay [8] it was 30; in [9] it was 0.
